According to patent publication US10555919B2, “Melatonin in autoimmune disease” (The Brigham and Women's Hopsital, Inc., priority 2014, dated 2020):
Entries after “also recorded” stand apart in the source; their conditions may differ.

How the values were obtained:
[1] = system: human CD4+ T cells activated under Th17 polarizing conditions; assay: In vitro human Th17 differentiation; assay type: cell-based; details: 500 ng/ml
Method: In vitro human T cell differentiation. For Th17 differentiation, naive CD45RA+ CD4+ T cells were isolated from PBMCs with magnetic beads (Naive Human CD4+ T Cell Isolation Kit II, Miltenyi Biotec) and seeded at a density of 5×10^5 cells/ml in 24-well plates coated with anti-CD3 and (2 μg/ml) and soluble anti-CD28 and cultured in the presence of the following cytokines IL-1β (25 ng/ml), IL-6 (50 ng/ml), and TGF-β1 (2 ng/ml) and neutralizing antibodies to IFN-g ([…]) and IL-4 (10 microgram/ml). Alternatively, Th17 cells were differentiated by using IL-1β (25 ng/ml), IL-6 (50 ng/ml), and IL-23 (50 ng/ml) and neutralizing antibodies to IFN-g ([…]) and IL-4 (10 microgram/ml). For Th1 differentiation naïve CD4+T cells are cultured in the presence of IL-12 (20 ng/ml) and anti-IL-4 (10 μg/ml).
(§1) Secreted cytokines were measured in tissue culture supernatants after 72-96 hs by enzyme-linked immunosorbent assay as previously described (Farez et al., 2009).

2D2+ transgenic T cells = assay: In vitro activation of naive 2D2+ transgenic T cells / CD4+ T cells (MOG35-55 and DCs or anti-CD3 and anti-CD28); assay type: cell-based, mice
[2] = system: murine Th17 cell differentiation; assay: In vitro mouse Th17 cell differentiation; assay type: cell-based; details: melatonin 2 ng/ml
Method: For intracellular cytokine staining, cells were stimulated for 4 h at 37° C. with phorbol 12-myristate 13-acetate (50 ng/ml; Sigma), ionomycin (1 μg/ml; Sigma) and monensin (GolgiStop; 1 μg/ml; BD Biosciences). After being stained for surface markers, cells were fixed and made permeable according to the manufacturer's instructions (BD Biosciences). All antibodies against cytokines were from Biolegend. All experiments were started at the same time (8-9 am). Data were collected with a LSR II or FACSAria (BD Biosciences), then were analyzed with FlowJo software (Treestar).
Naive CD4+ T cells (CD4+CD44loCD62LhiCD25−) were from the spleen and lymph node of C57BL/6 wild-type, MTNR1A−, NFIL3−, REV-ERBα, C/EBPα-deficient or RORα-deficient mice using magnetic beads (CD4+ T cell isolation kit, Miltenyi Biotec). All experiments were started between 7 and 9 am. Cells were activated with plate-bound anti-CD3 (2 μg/ml; 14-0031-86; eBioscience) and anti-CD28 (2 μg/ml; 16-0281-86; eBioscience). Mouse IL-27 (30 ng/ml; 34-8271; Biolegend) was added for the generation of Tr1 cells. IL-6 (30 ng/ml; 406-ML-025; R&D Systems), TGF-β1 (15 ng/ml; 130-095-067; Miltenyi Biotec), anti-IL-4 (2.5 μg/ml; C17.8; Biolegend) and anti-IFN-γ (5 μg/ml; XMG1.2; Biolegend) were added for the generation of Th17 cells. Recombinant mouse IL-23 (30 ng/ml; 1887-ML-010; R&D Systems) was added at day 2. For some experiments IL-6 and […] (10 ng/ml; 401-ML-025; R&D Systems) or TGF-β1 and IL-21 (100 ng/ml; 594-ML-010; R&D Systems) were used in instead for Th17 cell differentiation. IL-12 (30 ng/ml; 419-ML-010; R&D Systems) and anti-IL-4 (2.5 μg/ml; C17.8; Biolegend) were used for the generation of Th1 cells. IL-4 (30 ng/ml; 404-ML-010; R&D Systems) and anti-IFN-γ (5 μg/ml; XMG1.2; Biolegend) was added for the generation of Th2 cells. TGF-β1 (15 ng/ml; 130-095-067; Miltenyi Biotec) was used for the generation of Foxp3+ Tregs. Melatonin (Gador, Argentina), Agomelatin, and CGP-52608 (Sigma-Aldrich) were added at the start of the cultures and at day 2, at a final concentration of 2-20 ng/ml.
as §1

[3] = during Th17 cell differentiation, 3 days

COc1ccc2[nH]cc(CCNC(C)=O)c2c1 [Melatonin, N-Acetyl-5-methoxytryptamine]
production of IL-17, RORC and IL17A expression [1]: reduced
IL10 expression ([1]; Th17 polarizing conditions): increased
ability of melatonin-pretreated DCs to activate 2D2+ T cells (2D2+ transgenic T cells; in the presence of MOG35-55): did not affect
apoptosis in CD4+ T cells (annexin V and propidium iodide staining, Bcl-xl levels) (2D2+ transgenic T cells; stimulated with antibodies against CD3 and CD28, 3 days): did not increase
in vitro activation of naive 2D2+ transgenic T cells (2D2+ transgenic T cells; with MOG35-55 and DCs or with antibodies to CD3 and CD28 in the absence of DCs): suppressed
differentiation of MTNR1A-deficient (MTNR1A KO) Th17 cells ([2]; MTNR1A KO): failed to suppress; also recorded: boosted
expression of both ROR-α and ROR-γt ([2]; Th17 polarizing conditions): reduced
expression of IL-10 ([2]; Th17 polarizing conditions, 72 hs): increased
expression of the ROR-γt repressor NFIL3 [2, 3]: increase
nr1d1 expression [2, 3]: suppressed
differentiation of Th17 cells (rorc, IL-17, IL-23 receptor) ([2]; wild type, agomelatine 20 ng/ml, ramelteon 10 ng/ml, CGP 52608 20 ng/ml): interfered
